From US11535643B2, “Macrolides with modified desosamine sugars and uses thereof” (President and Fellows of Harvard College, priority 2015, dated 2022)
Values after ≈ are worked out from the molar mass of the structure shown.

Key:
Type in all cases: cell-based
[1] = system: S. aureus; test: Broth dilution MIC determination (CLSI) against S. aureus strains
In short: (§1)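 MICs were determined by CLSI standard broth dilution against multiple strains, including multidrug-resistant isolates, with emphasis on macrolide resistance mechanisms. Azithromycin and solithromycin served as control compounds.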

[2] = system: S. pneumoniae; test: Broth dilution MIC determination (CLSI) against S. pneumoniae strains
In short: as §1

[3] = system: H. influenzae; test: Broth dilution MIC determination (CLSI) against H. influenzae strains
From the text: Minimum inhibitory concentrations (MICs) for macrolides described herein have been determined for unique strains of S. aureus, S. pneumoniae, S. pyogenes, E. faecalis, E. coli, A. baumannii, K. pneumoniae, P. aeruginosa, and H. influenzae, including several multidrug-resistant strains, with a special focus on macrolide resistant mechanisms. Azithromycin and solithromycin were included as control compounds. CLSI standard procedures for broth dilution MIC determination were used. Data for exemplary compounds described herein is shown in Tables M1-M7 and in Tables N1-N4.

[4] = system: A. baumannii; test: Broth dilution MIC determination (CLSI) against A. baumannii strains
In short: as §1

[5] = system: E. faecalis; test: Broth dilution MIC determination (CLSI) against E. faecalis strains
In short: as §1

[6] = system: E. coli; test: Broth dilution MIC determination (CLSI) against E. coli strains
In short: as §1

[7] = system: K. pneumoniae; test: Broth dilution MIC determination (CLSI) against K. pneumoniae strains
In short: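 CLSI broth-dilution MICs across a panel including multidrug- and macrolide-resistant strains, with azithromycin and solithromycin as control compounds.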

[8] = system: P. aeruginosa; test: Broth dilution MIC determination (CLSI) against P. aeruginosa strains
In short: as §1

[9] = system: S. pyogenes; test: Broth dilution MIC determination (CLSI) against S. pyogenes strains
In short: as §1

With `CCC1OC(=O)C(C)C(=O)C(C)C(OC2OC(Cn3cc(-c4cnc(N)s4)nn3)CC(N(C)C)C2O)C(C)(OC)CC(C)CNC(C)C2N(CCCCn3cc(-c4cccc(N)c4)nn3)C(=O)OC12C` (centres unmarked) [FSM-22373] the “MIC S. aureus ATCC29213” value [1] was over 32 µg/mL, the “MIC S. aureus MRSA: USA100” value [1] was over 32 µg/mL and the “MIC S. aureus MRSA: USA300” value [1] was over 32 µg/mL. For the same molecule, the “MIC S. aureus USA600, GISA” value [1] was over 32 µg/mL, the “MIC S. aureus erm A genotype” value [1] was over 32 µg/mL and the “MIC S. pneumoniae ATCC49619” value [2] was under 0.03125 µg/mL. The “MIC S. pneumoniae erm B + mef A genotype” value [2] was 32 µg/mL, the “MIC S. pneumoniae erm B + tet(M, O) genotype” value [2] was under 0.03125 µg/mL and the “MIC H. influenzae ATCC49247” value [3] was over 32 µg/mL. The “MIC H. influenzae erythro > 4, azithro 1” value [3] was 16 µg/mL (≈ 16.1 µM), the “MIC A. baumannii ATCC19606” value [4] was over 32 µg/mL and the “MIC A. baumannii IMP-4” value [4] was over 32 µg/mL. For the same molecule, the “MIC A. baumannii chromosomal class C” value [4] was over 32 µg/mL, the “MIC A. baumannii imipenem-resistant” value [4] was over 32 µg/mL and the “MIC E. faecalis ATCC29212” value [5] was 32 µg/mL (≈ 32.2 µM). For the same molecule, the “MIC E. faecalis Vancomycin-resistant” value [5] was over 32 µg/mL, the “MIC E. coli ATCC25922” value [6] was over 32 µg/mL and the “MIC E. coli CTX-M-14” value [6] was over 32 µg/mL. The “MIC E. coli NDM-1” value [6] was over 32 µg/mL, the “MIC E. coli TEM-1” value [6] was over 32 µg/mL and the “MIC K. pneumoniae ATCC10031” value [7] was over 32 µg/mL. The “MIC K. pneumoniae KPC-2” value [7] was over 32 µg/mL, the “MIC K. pneumoniae SHV-12” value [7] was over 32 µg/mL and the “MIC K. pneumoniae TEM-10” value [7] was 32 µg/mL (≈ 32.2 µM). The “MIC P. aeruginosa ATCC27853” value [8] was over 32 µg/mL, the “MIC P. aeruginosa HPA101-1477” value [8] was over 32 µg/mL and the “MIC S. pyogenes ATCC19615” value [9] was 8 µg/mL (≈ 8.05 µM). For the same molecule, the “MIC S. pyogenes macrolide-resistant” value [9] was over 32 µg/mL.

In the case of `CC[C@H]1OC(=O)[C@H](C)C(=O)[C@H](C)[C@@H](O[C@@H]2OC(Cn3cc(-c4ccccn4)nn3)CC(N(C)C)C2O)[C@](C)(OC)C[C@@H](C)CN[C@H](C)[C@H]2N(CCCCn3cc(-c4cccc(N)c4)nn3)C(=O)O[C@]12C` (some centres unmarked) [FSM-22366], the “MIC S. aureus ATCC29213” value [1] is reported as 32 µg/mL (≈ 32.9 µM), the “MIC S. aureus MRSA: USA100” value [1] is reported as over 32 µg/mL and the “MIC S. aureus MRSA: USA300” value [1] is reported as over 32 µg/mL. The “MIC S. aureus USA600, GISA” value [1] was over 32 µg/mL, the “MIC S. aureus erm A genotype” value [1] was over 32 µg/mL and the “MIC S. pneumoniae ATCC49619” value [2] was under 0.03125 µg/mL. The “MIC S. pneumoniae erm B + mef A genotype” value [2] was over 32 µg/mL, the “MIC S. pneumoniae erm B + tet(M, O) genotype” value [2] was under 0.03125 µg/mL and the “MIC H. influenzae ATCC49247” value [3] was 4 µg/mL (≈ 4.11 µM). For the same molecule, the “MIC H. influenzae erythro > 4, azithro 1” value [3] was 4 µg/mL (≈ 4.11 µM), the “MIC A. baumannii ATCC19606” value [4] was over 32 µg/mL and the “MIC A. baumannii IMP-4” value [4] was over 32 µg/mL. The “MIC A. baumannii chromosomal class C” value [4] was over 32 µg/mL, the “MIC A. baumannii imipenem-resistant” value [4] was 32 µg/mL (≈ 32.9 µM) and the “MIC E. faecalis ATCC29212” value [5] was 2 µg/mL (≈ 2.06 µM). For the same molecule, the “MIC E. faecalis Vancomycin-resistant” value [5] was over 32 µg/mL, the “MIC E. coli ATCC25922” value [6] was over 32 µg/mL and the “MIC E. coli CTX-M-14” value [6] was over 32 µg/mL. For the same molecule, the “MIC E. coli NDM-1” value [6] was over 32 µg/mL, the “MIC E. coli TEM-1” value [6] was 16 µg/mL (≈ 16.5 µM) and the “MIC K. pneumoniae ATCC10031” value [7] was 16 µg/mL (≈ 16.5 µM). The “MIC K. pneumoniae KPC-2” value [7] was over 32 µg/mL, the “MIC K. pneumoniae SHV-12” value [7] was over 32 µg/mL and the “MIC K. pneumoniae TEM-10” value [7] was 32 µg/mL (≈ 32.9 µM). The “MIC P. aeruginosa ATCC27853” value [8] was over 32 µg/mL, the “MIC P. aeruginosa HPA101-1477” value [8] was over 32 µg/mL and the “MIC S. pyogenes ATCC19615” value [9] was under 0.03125 µg/mL. For the same molecule, the “MIC S. pyogenes macrolide-resistant” value [9] was 1 µg/mL (≈ 1.03 µM).

With `CCC1OC(=O)C(C)C(=O)C(C)C(OC2OC(C)CC(N(C)Cc3cccnc3)C2O)C(C)(OC)CC(C)CNC(C)C2N(CCCCn3cc(-c4cccc(N)c4)nn3)C(=O)OC12C` (centres unmarked) [FSM-120385] the MIC ([1]; S. aureus (MRSA) GISA USA600, strain MP-619 UNT-120 (Table N2)) was over 64 µg/mL, the MIC ([1]; S. aureus (MRSA) ST-228 cErm, strain MP-513 (Table N2)) was over 64 µg/mL and the MIC ([1]; S. aureus (MRSA) USA100, strain MP-618 UNT-096 (Table N2)) was over 64 µg/mL. For the same molecule, the MIC ([1]; S. aureus (MRSA) USA300, strain MP-549 (Table N2)) was 16 µg/mL (≈ 17.7 µM), the MIC ([1]; S. aureus (MRSA) ermA phenotype, strain MP-620 UNT-146 (Table N2)) was over 64 µg/mL and the MIC ([1]; S. aureus ATCC29213, strain MP-12 (Table N2)) was 4 µg/mL (≈ 4.42 µM). The MIC ([1]; S. aureus ATCCBAA-977, strain MP-17 (Table N2)) was 4 µg/mL (≈ 4.42 µM), the MIC ([2]; S. pneumoniae ATCC49619, strain MP-21 (Table N2)) was 0.06 µg/mL (≈ 0.0663 µM) and the MIC ([2]; S. pneumoniae mefA, strain MP-626 UNT-038 (Table N2)) was 0.125 µg/mL (≈ 0.138 µM). For the same molecule, the MIC ([2]; S. pneumoniae mefA, strain MP-627 UNT-039 (Table N2)) was 0.25 µg/mL (≈ 0.276 µM), the MIC ([4]; A. baumannii ATCC19606, strain MP-15 (Table N2)) was 16 µg/mL (≈ 17.7 µM) and the MIC ([4]; A. baumannii clinical, strain MP576 (Table N2)) was over 64 µg/mL. The MIC ([4]; A. baumannii clinical, strain MP577 (Table N2)) was 64 µg/mL (≈ 70.7 µM), the MIC ([5]; E. faecalis ATCC29212, strain MP-24 (Table N2)) was 1 µg/mL (≈ 1.1 µM) and the MIC ([5]; E. faecalis van resistant, strain UNT-039 (Table N2)) was over 64 µg/mL. The MIC ([6]; E. coli ATCC25922, strain MP-4 (Table N2)) was 64 µg/mL (≈ 70.7 µM), the MIC ([6]; E. coli ATCC25922:tolC, strain MP-9 (Table N2)) was 4 µg/mL (≈ 4.42 µM) and the MIC ([6]; E. coli clinical, strain MP541 (Table N2)) was 64 µg/mL (≈ 70.7 µM). The MIC ([6]; E. coli clinical-cErm, strain MP532 (Table N2)) was over 64 µg/mL, the MIC ([7]; K pneumomae ATCC10031, strain MP-14 (Table N2)) was 8 µg/mL (≈ 8.84 µM) and the MIC ([7]; K. pneumoniae clinical, strain MP546 (Table N2)) was over 64 µg/mL. For the same molecule, the MIC ([7]; K. pneumoniae clinical, strain MP548 (Table N2)) was over 64 µg/mL, the MIC ([8]; P. aeruginosa ATCC27853, strain MP-3 (Table N2)) was over 64 µg/mL and the MIC ([8]; P. aeruginosa PAO1, strain MP-7 (Table N2)) was over 64 µg/mL. The MIC ([8]; P. aeruginosa PAO1:mex, strain MP-8 (Table N2)) was 32 µg/mL (≈ 35.4 µM), the MIC ([9]; S. pyogenes ATCC19615, strain MP-19 (Table N2)) was under 0.03 µg/mL and the MIC ([9]; S. pyogenes mac resistant, strain MP-625 UNT-014 (Table N2)) was 1 µg/mL (≈ 1.1 µM).
